Patent US10414774B2, “Compound useful for altering the levels of bile acids for the treatment of diabetes and cardiometabolc disease” (Merck Sharp & Dohme Corp., priority 2016, dated 2019)

target: T1, Human CYP8B1 (Homo sapiens, UniProt Q9UNU6); assay: Human CYP8B1 Liver Microsome Assay; conditions: Human CYP8B1 IC50, human liver microsomes; substrate 7a-hydroxy-4-cholesten-3-one, NADPH; RapidFire MS detection of 7α,12α-dihydroxy-4-cholesten-3-one
T1 sequence (Q9UNU6 1-501): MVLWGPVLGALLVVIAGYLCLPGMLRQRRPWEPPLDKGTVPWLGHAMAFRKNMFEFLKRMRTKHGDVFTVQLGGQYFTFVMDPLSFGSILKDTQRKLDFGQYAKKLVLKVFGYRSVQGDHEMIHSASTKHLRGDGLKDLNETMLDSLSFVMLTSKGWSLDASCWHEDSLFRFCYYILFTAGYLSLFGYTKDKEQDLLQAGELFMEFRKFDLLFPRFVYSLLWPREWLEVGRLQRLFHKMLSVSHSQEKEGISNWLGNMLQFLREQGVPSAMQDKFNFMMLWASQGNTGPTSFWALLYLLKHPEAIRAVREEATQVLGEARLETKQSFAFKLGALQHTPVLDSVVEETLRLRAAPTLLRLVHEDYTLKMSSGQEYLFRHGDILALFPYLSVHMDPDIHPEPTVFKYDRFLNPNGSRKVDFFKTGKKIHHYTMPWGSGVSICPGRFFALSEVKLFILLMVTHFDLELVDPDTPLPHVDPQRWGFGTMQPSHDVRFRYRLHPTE

Row | Compound | IC50
1 | N#Cc1cnc2ccc(Cl)cc2c1N1CCC(C(=O)N2CCn3c(nnc3C(F)(F)F)C2)C(C(F)(F)F)C1 (stereo not shown) [Example 118, 6-chloro-4-[3-(trifluoromethyl)-4-{[3-(trifluoromethyl)-5,6-dihydro[1,2,4]triazolo[4,3-a]pyrazin-7(8H)-yl]carbonyl}piperidin-1-yl]quinoline-3-carbonitrile] | 2.1 nM
2 | COc1ccc2nc(C)c(C#N)c(N3CC[C@H](C(=O)N4CCn5c(nnc5C(F)(F)F)C4)[C@H](C)C3)c2c1 [Example 32, 6-methoxy-2-methyl-4-[(3S,4S)-3-methyl-4-{[3-(trifluoromethyl)-5,6-dihydro[1,2,4]triazolo[4,3-a]pyrazin-7(8H)-yl]carbonyl}piperidin-1-yl]quinoline-3-carbonitrile] | 2.9 nM
3 | C[C@@H]1CN(c2c(C#N)cnc3cc(Cl)ccc23)CC[C@@H]1C(=O)N1CCn2c(nnc2C(F)(F)F)C1 [Example 27, 7-chloro-4-[(3S,4S)-3-methyl-4-{[3-(trifluoromethyl)-5,6-dihydro[1,2,4]triazolo[4,3-a]pyrazin-7(8H)-yl]carbonyl}piperidin-1-yl]quinoline-3-carbonitrile] | 0.74 nM
4 | COc1ccc2c(N3C[C@@H](C)N(C(=O)N4CCn5c(nnc5C(F)(F)F)C4)[C@H](C)C3)c(C#N)cnc2c1 [Example 83a, 4-((3R,5R)-3,5-dimethyl-4-(3-(trifluoromethyl)-5,6,7,8-tetrahydro-[1,2,4]triazolo[4,3-a]pyrazine-7-carbonyl)piperazin-1-yl)-7-methoxyquinoline-3-carbonitrile] | 11.3 nM
5 | COc1nc2ccc(Cl)cc2c(N2CCC(C(=O)N3CCn4c(nnc4C(F)(F)F)C3)C(C)C2)c1C#N (stereo not shown) [Example 126, 6-chloro-2-methoxy-4-(3-methyl-4-{[3-(trifluoromethyl)-5,6-dihydro[1,2,4]triazolo[4,3-a]pyrazin-7(8H)-yl]carbonyl}piperidin-1-yl)quinoline-3-carbonitrile] | 210 nM
6 | C[C@@H]1CN(c2c(C#N)cnc3ccccc23)CC[C@@H]1C(=O)N1CCn2c(nnc2C(F)(F)F)C1 [Example 79, 4-[(3S,4S)-3-methyl-4-{[3-(trifluoromethyl)-5,6-dihydro[1,2,4]triazolo[4,3-a]pyrazin-7(8H)-yl]carbonyl}piperidin-1-yl]quinoline-3-carbonitrile] | 1.6 nM
7 | C[C@@H]1CN(c2c(C#N)cnc3c(F)c(Cl)ccc23)CC[C@@H]1C(=O)N1CCn2c(nnc2C2CC2)C1 [Example 66, 7-chloro-4-{(3S,4S)-4-[(3-cyclopropyl-5,6-dihydro[1,2,4]triazolo[4,3-a]pyrazin-7(8H)-yl)carbonyl]-3-methylpiperidin-1-yl}-8-fluoroquinoline-3-carbonitrile] | 0.51 nM
8 | N#Cc1cnc2ccc(Cl)cc2c1N1CCC(C(=O)N2CCn3c(nnc3C(F)(F)F)C2)CC1 [Example 103, 6-chloro-4-(4-(3-(trifluoromethyl)-5,6,7,8-tetrahydro-[1,2,4]triazolo[4,3-a]pyrazine-7-carbonyl)piperidin-1-yl)quinoline-3-carbonitrile] | 23.2 nM
9 | N#Cc1cnc2ccc(Cl)cc2c1N1CCC(C(=O)N2CCn3cc(C(F)(F)F)nc3C2)CC1 [Example 104, 6-chloro-4-(4-{[2-(trifluoromethyl)-5,6-dihydroimidazo[1,2-a]pyrazin-7(8H)-yl]carbonyl}piperidin-1-yl)quinoline-3-carbonitrile] | 863 nM
10 | C[C@@H]1CN(c2c(C#N)cnc3cc(C(F)(F)F)ccc23)CC[C@@H]1C(=O)N1CCn2c(nnc2C(F)(F)F)C1 [Example 24, 4-((3S,4S)-3-methyl-4-(3-(trifluoromethyl)-5,6,7,8-tetrahydro-[1,2,4]triazolo[4,3-a]pyrazine-7-carbonyl)piperidin-1-yl)-7-(trifluoromethyl)quinoline-3-carbonitrile] | 0.4 nM
11 | C[C@@H]1CN(c2c(C#N)c(Cl)nc3ccc(Cl)cc23)CC[C@@H]1C(=O)N1CCn2c(nnc2C(F)(F)F)C1 [Example 56, 2,6-dichloro-4-[(3S,4S)-3-methyl-4-{[3-(trifluoromethyl)-5,6-dihydro[1,2,4]triazolo[4,3-a]pyrazin-7(8H)-yl]carbonyl}piperidin-1-yl]quinoline-3-carbonitrile] | 1.5 nM
12 | COc1ccc2ncc(C#N)c(N3CC[C@H](C(=O)N4CCn5c(nnc5C(F)(F)F)C4)[C@H](C)C3)c2c1 [Example 9, 6-methoxy-4-[(3S,4S)-3-methyl-4-{[3-(trifluoromethyl)-5,6-dihydro[1,2,4]triazolo[4,3-a]pyrazin-7(8H)-yl]carbonyl}piperidin-1-yl]quinoline-3-carbonitrile] | 0.51 nM
13 | C[C@@H]1CN(c2c(C#N)cnc3c(F)cc(F)cc23)CC[C@@H]1C(=O)N1CCn2c(nnc2C(F)(F)F)C1 [Example 26, 6,8-difluoro-4-[(3S,4S)-3-methyl-4-{[3-(trifluoromethyl)-5,6-dihydro[1,2,4]triazolo[4,3-a]pyrazin-7(8H)-yl]carbonyl}piperidin-1-yl]quinoline-3-carbonitrile] | 0.49 nM
14 | Cc1nc2ccc(Br)cc2c(N2CCC(C(=O)N3CCn4c(nnc4C(F)(F)F)C3)CC2)c1C#N [Example 48, 6-bromo-2-methyl-4-(4-(3-(trifluoromethyl)-5,6,7,8-tetrahydro-[1,2,4]triazolo[4,3-a]pyrazine-7-carbonyl)piperidin-1-yl)quinoline-3-carbonitrile] | 109 nM
15 | Cc1nc2ccc(Cl)cc2c(N2CC[C@H](C(=O)N3CCc4oncc4C3)[C@H](C)C2)c1C#N [Example 97, 6-chloro-4-[(3S,4S)-4-(6,7-dihydroisoxazolo[4,5-c]pyridin-5(4H)-ylcarbonyl)-3-methylpiperidin-1-yl]-2-methylquinoline-3-carbonitrile] | 4.2 nM
16 | C[C@@H]1CN(c2c(C#N)c[n+]([O-])c3cc(OCC4CC4)ccc23)CC[C@@H]1C(=O)N1CCn2c(nnc2C(F)(F)F)C1 [Example 71, 7-(cyclopropylmethoxy)-4-[(3S,4S)-3-methyl-4-{[3-(trifluoromethyl)-5,6-dihydro[1,2,4]triazolo[4,3-a]pyrazin-7(8H)-yl]carbonyl}piperidin-1-yl]quinoline-3-carbonitrile 1-oxide] | 0.54 nM
17 | CC1CC(C(=O)N2CCn3c(nnc3C(F)(F)F)C2)CCN1c1c(C#N)cnc2ccc(Cl)cc12 (single isomer, unassigned) [Example 73b, 6-chloro-4-[(2R,4R) or (2S,4S)-2-methyl-4-{[3-(trifluoromethyl)-5,6-dihydro[1,2,4]triazolo[4,3-a]pyrazin-7(8H)-yl]carbonyl}piperidin-1-yl]quinoline-3-carbonitrile] | 15 nM
18 | C[C@@H]1CN(c2c(C#N)cnc3c(F)c(F)c(F)cc23)CC[C@@H]1C(=O)N1CCn2c(nnc2C(F)(F)F)C1 [Example 7, 6,7,8-trifluoro-4-[(3S,4S)-3-methyl-4-{[3-(trifluoromethyl)-5,6-dihydro[1,2,4]triazolo[4,3-a]pyrazin-7(8H)-yl]carbonyl}piperidin-1-yl]quinoline-3-carbonitrile] | 1.1 nM
19 | Cc1nc2ccc(F)cc2c(N2CC[C@H](C(=O)N3CCn4c(nnc4C(F)(F)F)C3)[C@H](C)C2)c1C#N [Example 29, 6-fluoro-2-methyl-4-[(3S,4S)-3-methyl-4-{[3-(trifluoromethyl)-5,6-dihydro[1,2,4]triazolo[4,3-a]pyrazin-7(8H)-yl]carbonyl}piperidin-1-yl]quinoline-3-carbonitrile] | 9.4 nM
20 | C[C@@H]1CN(c2c(C#N)cnc3cc(O)ccc23)CC[C@@H]1C(=O)N1CCn2c(nnc2C(F)(F)F)C1 [Example 5, 7-hydroxy-4-[(3S,4S)-3-methyl-4-{[3-(trifluoromethyl)-5,6-dihydro[1,2,4]triazolo[4,3-a]pyrazin-7(8H)-yl]carbonyl}piperidin-1-yl]quinoline-3-carbonitrile] | 1.4 nM
21 | N#Cc1cnc2ccc(Cl)cc2c1N1CCN(C(=O)N2CCn3c(nnc3C(F)(F)F)C2)CC1 [Example 129, 6-chloro-4-(4-{[3-(trifluoromethyl)-5,6-dihydro[1,2,4]triazolo[4,3-a]pyrazin-7(8H)-yl]carbonyl}piperazin-1-yl)quinoline-3-carbonitrile] | 386 nM
22 | Cc1nc2ccc(Cl)cc2c(N2CC[C@H](C(=O)N3CCc4[nH]ncc4C3)[C@H](C)C2)c1C#N [Example 95, 6-chloro-2-methyl-4-[(3S,4S)-3-methyl-4-(1,4,6,7-tetrahydro-5H-pyrazolo[4,3-c]pyridin-5-ylcarbonyl)piperidin-1-yl]quinoline-3-carbonitrile] | 17 nM
23 | CC(C)Oc1ccc2c(N3CC[C@H](C(=O)N4CCn5c(nnc5C(F)(F)F)C4)[C@H](C)C3)c(C#N)cnc2c1F [Example 37, 8-fluoro-4-[(3S,4S)-3-methyl-4-{[3-(trifluoromethyl)-5,6-dihydro[1,2,4]triazolo[4,3-a]pyrazin-7(8H)-yl]carbonyl}piperidin-1-yl]-7-(propan-2-yloxy)quinoline-3-carbonitrile] | 0.54 nM
24 | C[C@@H]1CN(c2c(C#N)c(C(F)F)nc3ccc(Cl)cc23)CC[C@@H]1C(=O)N1CCn2c(nnc2C(F)(F)F)C1 (single isomer, unassigned) [Example 57a] | 41 nM
25 | CC[C@H]1CN(c2c(C#N)cnc3c(F)c(OC)ccc23)CC[C@H]1C(=O)N1CCn2c(nnc2C(F)(F)F)C1 [Example 74a, 4-[(3R,4R)-3-ethyl-4-{[3-(trifluoromethyl)-5,6-dihydro[1,2,4]triazolo[4,3-a]pyrazin-7(8H)-yl]carbonyl}piperidin-1-yl]-8-fluoro-7-methoxyquinoline-3-carbonitrile] | 343 nM
